{
  "source": "patent US7060501B2",
  "about": "(priority 2002, dated 2006)",
  "key": {"[1]": {"molecular_target": "organophosphate hydrolase (Brevundimonas diminuta, UniProt P0A434)", "settings": "cited from earlier work"}, "maize callus": {"system": "maize callus", "format": "cell-based"}, "[2]": {"system": "organophosphate hydrolase", "format": "biochemical", "settings": "0.5 mM amiprophos-methyl, 2 μg organophosphate hydrolase, scans every 30 seconds"}, "[3]": {"system": "organophosphate hydrolase in maize callus", "experiment": "Coumaphos plate screen: fluorescence of maize callus under ultraviolet light", "format": "cell-based", "settings": "3 ml of 1 mg/ml coumaphos per plate, two days post-transfer"}, "[4]": {"system": "transgenic OPH and control callus cells", "experiment": "Growth of callus cultures on haloxon plates (prospective Example 9, FIG. 6)", "format": "cell-based", "settings": "haloxon 1, 5, 10, 50, 100 and 500 μM, six weeks, percentage growth compared to control"}},
  "data": [
    {"compound": "COP(=O)(NC(C)=O)SC", "note": "(stereo not drawn) [acephate]", "values": [
      {"measurement": "rate of hydrolysis by organophosphate hydrolase compared with strong alkaline / non-enzymatic hydrolysis", "setting": "[1]", "value": "thousands of times greater"}
    ]},
    {"compound": "COP(=S)(NC(C)C)Oc1ccc(C)cc1[N+](=O)[O-]", "note": "(stereo not drawn) [amiprophos-methyl]", "values": [
      {"measurement": "effect on new growth from maize callus", "setting": "maize callus", "value": "inhibitory effect"},
      {"measurement": "cleavage by organophosphate hydrolase, detected by absorbance", "setting": "[2]", "value": "results in the absorbance of light"}
    ]},
    {"compound": "CCOP(=S)(OCC)Oc1ccc2c(C)c(Cl)c(=O)oc2c1", "note": "[coumaphos]", "values": [
      {"measurement": "effect on new growth from maize callus", "setting": "maize callus", "value": "inhibitory effect"},
      {"measurement": "fluorescence of non-transformed callus under ultraviolet light", "setting": "[3]; non-transformed callus", "value": "did not"},
      {"measurement": "fluorescence of transformed callus under ultraviolet light", "setting": "[3]; transformed callus", "value": "fluoresced"}
    ]},
    {"compound": "Cc1c(Cl)c(=O)oc2cc(OP(=O)(OCCCl)OCCCl)ccc12", "note": "[haloxon]", "values": [
      {"measurement": "growth of transgenic OPH cells versus control cultures", "setting": "[4]", "value": "ability of the transgenic OPH cells to grow at concentrations where control cultures would not"}
    ]},
    {"compound": "CCOC(=O)CC(SP(=S)(OC)OC)C(=O)OCC", "note": "(stereo not drawn) [malathion]", "values": [
      {"measurement": "capability of the enzyme for hydrolysis", "setting": "[1]", "value": "poor capability"},
      {"measurement": "rate of hydrolysis by organophosphate hydrolase compared with strong alkaline / non-enzymatic hydrolysis", "setting": "[1]", "value": "significantly better"}
    ]},
    {"compound": "CCOP(=S)(OCC)SCn1c(=O)oc2cc(Cl)ccc21", "note": "[phosalone]", "values": [
      {"measurement": "rate of hydrolysis by organophosphate hydrolase compared with strong alkaline / non-enzymatic hydrolysis", "setting": "[1]", "value": "thousands of times greater"}
    ]},
    {"compound": "CCCOP(=S)(OCCC)SCC(=O)N1CCCCC1C", "note": "(stereo not drawn) [piperophos]", "values": [
      {"measurement": "effect on new growth from maize callus", "setting": "maize callus", "value": "inhibitory effect"}
    ]},
    {"compound": "demeton-S-methyl", "values": [
      {"measurement": "rate of hydrolysis by organophosphate hydrolase compared with strong alkaline / non-enzymatic hydrolysis", "setting": "[1]", "value": "thousands of times greater"}
    ]}
  ]
}
